Consider 32 compounds from patent publication US20180193294A1, “Dehydroabietic acid (DHAA) derivatives for use as ion channel openers” (priority 2015, published 2018).

For the test, the target named is 3R Shaker K channel (Drosophila melanogaster, UniProt P08510, A359R/M356R). As to the kind of experiment: physchem. In kind it is cell-based. The settings on record: 100 μM; for compound-induced G(V) shift (mean±SEM) / G(V) shift: pH 7.4, Xenopus oocytes; for ΔG(V) of representative G(V) curves (single examples): pH 7.4, same cells as representative traces; for relative current amplitude: representative traces at voltage giving 10% of maximum conductance in control; for relative current amplitude / effect on G(V) shift / current compared with DHAA / increase in G(V) shift relative to DHAA (ΔVc7, ΔVhalo, ΔVtot): pH 7.4; for effect on G(V) shift / current compared with DHAA: C7-modified DHAA; for G(V) shift: Table 1. The source says: A 3R Shaker K channel is a modified Shaker K channel where residues 356 and 359 are mutated to arginines.
All animal experiments were approved by the local Animal Care and Use Committee and followed international guidelines. A modified Shaker H4 channel^30, with removed N-type inactivation (ShH4IR)^31, here called the wild type (WT) channel, was expressed in oocytes. In addition, a modified 3R Shaker K channel where two introduced positive charged arginines (M356R and A359R) in addition to one native arginine (R362) makes the channel more sensitive to DHA^16, was expressed in oocytes and in a CHO—K1 stable cell line.
African clawed frogs (Xenopus laevis) were anesthetized with 1.4 g/L ethyl 3-aminobenzoate methanesulfonate salt (tricaine). After an incision through the abdomen a batch of oocytes were removed. Clusters of oocytes were separated by incubation for ˜1 h in a Ca-free O—R2 solution (in mM: 82.5 NaCl, 2 KCl, 5 HEPES, and 1 MgCl2; pH adjusted to 7.4 by NaOH) containing Liberase Blendzyme. The oocytes were then incubated at 8° C. in a modified Barth's solution (MBS; in mM: 88 NaCl, 1 KCl, 2.4 NaHCO3, 15 HEPES, 0.33 Ca(NO3)2, 0.41 CaCl2, and 0.82 MgSO4; pH adjusted to 7.6 by NaOH) supplemented with penicillin (25 U/ml), streptomycin (25 μg/ml), and sodium pyruvate (2.5 mM) 2-24 hours before injection. Fifty nl of cRNA (50 pg) were injected into each oocyte using a Nanoject injector (Drummond Scientific, Broomall, Pa.). Injected oocytes were kept at 8° C. in MBS until one day before electrophysiological recordings, when they were incubated at 16° C. All chemicals were supplied from Sigma-Aldrich (Stockholm, Sweden) if not stated otherwise.
All manual electrophysiological recordings were performed at room temperature (20-23° C.), using a GeneClamp 500B amplifier (for oocytes) or a Axopatch 200B amplifier (for manual patch clamp of CHO—K1 cells and DRG neurons) and a Digidata 1440A digitizer and pClamp 10 software (all from Molecular Devices, Inc., Sunnyvale, Calif., USA). Compounds were dissolved to 100 mM in 99.5% EtOH and stored at −20° C. Compounds were diluted in extracellular solution to the desired test concentration.
The oocyte was placed in a bath surrounded by 1K extracellular solution that contained (in mM): 88 NaCl, 1 KCl, 15 HEPES, 0.4 CaCl2, and 0.8 MgCl2, pH adjusted to 7.4 by NaOH (reaching a sodium concentration of ˜100 mM). Control solution was added to the bath with a gravity driven perfusion system. Compound solution was added to the bath manually with a syringe. Two glass microelectrodes were inserted into the oocyte using micromanipulators. […] All channels were closed when the potential was clamped to −80 mV and this voltage was set as the holding potential. Currents were evoked from the holding potential of −80 mV by 100-ms long, 5-mV steps ranging from −80 up to +50 mV (WT) and +70 mV (3R).
Conductance GK(V) was calculated as GK(V)=[…], (Eq. 1) where IK is the average current from the steady-state phase at the end of each 100-ms pulse, V is the membrane voltage, and Vrev is the reversal potential for K^+, (set to −80 mV for the oocytes, and calculated to be −89 mV for the CHO—K1 cells).
G(V)=A/(1+exp((V1/2−V)/s))^n (Eq. 2) where A is amplitude of the curve, V is the absolute membrane voltage, V1/2 is the midpoint, s is the slope and n is an exponent set to 4^17. The compound-induced G(V) shift was determined at the 10% level of the maximum conductance in control solution^17. The compound-induced G(V) shift in CHO—K1 was quantified by subtracting the control V1/2 from the compound V1/2 when n was set to 1.
Data for concentration and pH dependent G(V) shifts (ΔV) in oocytes were fit with a dose-response equation ΔV=ΔVmax/(1+c1/2/c), (Eq. 3) where Δvmax is the maximal shift, c1/2 is half maximal effective concentration/pKa value and c is the concentration.

Each structure is given as a SMILES string.

Sequence of 3R Shaker K channel (P08510 whole entry M356R/A359R): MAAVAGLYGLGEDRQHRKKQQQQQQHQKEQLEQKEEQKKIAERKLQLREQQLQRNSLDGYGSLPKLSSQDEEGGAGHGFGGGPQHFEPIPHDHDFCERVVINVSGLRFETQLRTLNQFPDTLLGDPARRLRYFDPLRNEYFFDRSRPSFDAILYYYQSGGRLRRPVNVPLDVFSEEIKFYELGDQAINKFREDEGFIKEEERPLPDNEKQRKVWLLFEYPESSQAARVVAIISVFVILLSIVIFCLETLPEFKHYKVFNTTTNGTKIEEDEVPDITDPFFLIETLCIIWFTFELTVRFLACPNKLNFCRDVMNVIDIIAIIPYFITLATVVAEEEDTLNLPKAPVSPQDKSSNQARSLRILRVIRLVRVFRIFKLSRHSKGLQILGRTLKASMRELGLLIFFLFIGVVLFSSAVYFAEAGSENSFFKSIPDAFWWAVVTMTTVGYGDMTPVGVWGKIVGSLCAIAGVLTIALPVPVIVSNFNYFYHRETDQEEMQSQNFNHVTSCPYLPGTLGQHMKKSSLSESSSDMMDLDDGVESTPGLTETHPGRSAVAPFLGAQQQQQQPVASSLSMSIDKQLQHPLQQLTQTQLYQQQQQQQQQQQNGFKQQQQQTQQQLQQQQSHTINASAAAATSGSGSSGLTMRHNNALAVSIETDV

Turning to `CC(C)C1=CC2=CC[C@@H]3[C@](C)(CCC[C@@]3(C)C(=O)O)[C@H]2CC1` [AA, abietic acid], the “compound-induced G(V) shift (mean±SEM)” value is −11.2±2 mV, the “ΔG(V) of representative G(V) curves (single examples)” value is recorded as −8.1 mV and the relative current amplitude is 2.2 times.

`CC(C)c1ccc2c(c1)C(=NOCc1ccccc1)CC1C(C)(C(=O)O)CCCC21C` (centres unmarked) [Compound K9]: the “effect on G(V) shift / current compared with DHAA” value (“effect on G(V) shift / current” for short) was “no significantly different effects compared to DHAA” and the “G(V) shift” value is −9.5 mV.

As to `CC(C)c1ccc2c(c1)C(=NOCCCc1ccccc1)CC1C(C)(C(=O)O)CCCC21C` (centres unmarked) [Compound K10], the “effect on G(V) shift / current” value was “decreased potency compared to DHAA” and the “G(V) shift” value is −3.0 mV.

Regarding `CC(C)c1ccc2c(c1Cl)CCC1[C@](C)(C(=O)O)CCC[C@]21C` (stereo partly drawn) [Wu14, (1R,4aS)-8-chloro-7-isopropyl-1,4a-dimethyl-1,2,3,4,4a,9,10,10a-octahydrophenanthrene-1-carboxylic acid], the “G(V) shift” value is recorded as −17.5 mV.

For the compound `CC(C)c1ccc2c(c1Cl)C(=O)CC1[C@](C)(C(=O)O)CCC[C@]21C` (some centres unmarked) [Wu15], the “G(V) shift” value is listed as −4.9 mV.

Regarding `CO/N=C1\CC2[C@](C)(C(=O)O)CCC[C@]2(C)c2ccc(C(C)C)c(Cl)c21` (stereo partly drawn) [Wu16, (1R,4aS,E)-8-chloro-7-isopropyl-9-methoxyimino-1,4a-dimethyl-1,2,3,4,4a,9,10,10a-octahydrophenanthrene-1-carboxylic acid], the “G(V) shift” value is −17.2 mV.

`CC(C)c1ccc2c(c1Cl)C(=NO)CC1C(C)(C(=O)O)CCCC21C` (centres unmarked) [Wu17]: the “G(V) shift” value is −5.3 mV.

In the case of `CC(C)c1ccc2c(c1Cl)C(=NOCc1ccccc1)CC1C(C)(C(=O)O)CCCC21C` (centres unmarked) [Wu18], the “G(V) shift” value was −1.3 mV.

As to `C=CCO/N=C1\CC2[C@](C)(C(=O)O)CCC[C@]2(C)c2ccc(C(C)C)c(Cl)c21` (stereo partly drawn) [Wu19, (1R,4aS,E)-9-((allyloxy)imino)-8-chloro-7-isopropyl-1,4a-dimethyl-1,2,3,4,4a,9,10,10a-octahydrophenanthrene-1-carboxylic acid], the “G(V) shift” value was −16.1 mV.

With `CC(C)c1cc2c(cc1Cl)[C@@]1(C)CCC[C@@](C)(C(=O)O)C1CC2=O` (stereo partly drawn) [Wu20, (1R,4aS,E)-6-chloro-7-isopropyl-9-oxo-1,4a-dimethyl-1,2,3,4,4a,9,10,10a-octahydrophenanthrene-1-carboxylic acid], the “G(V) shift” value is −13.9 mV.

Consider `CC(C)c1cc2c(cc1Cl)[C@@]1(C)CCC[C@@](C)(C(=O)O)C1C/C2=N\O` (stereo partly drawn) [Wu21, (1R,4aS,E)-6-chloro-7-isopropyl-9-hydroxyimino-1,4a-dimethyl-1,2,3,4,4a,9,10,10a-octahydrophenanthrene-1-carboxylic acid], for which the “G(V) shift” value is reported as −13.8 mV.

On to `CC(C)c1cc2c(cc1Cl)C1(C)CCCC(C)(C(=O)O)C1CC2=NOCc1ccccc1` (centres unmarked) [Wu22], for which the “G(V) shift” value was −9.1 mV.

Regarding `CC(C)c1cc2c(cc1Br)[C@@]1(C)CCC[C@@](C)(C(=O)O)C1CC2` (stereo partly drawn) [Wu24, (1R,4aS,E)-6-bromo-7-isopropyl-1,4a-dimethyl-1,2,3,4,4a,9,10,10a-octahydrophenanthrene-1-carboxylic acid], the “increase in G(V) shift relative to DHAA (ΔVc7, ΔVhalo, ΔVtot)” value was −0.3 mV; the “compound-induced G(V) shift (mean±SEM)” value was −12.4 mV; the “G(V) shift” value is recorded as −12.5 mV.

Consider `CC(C)c1c(Cl)cc2c(c1Cl)CC[C@H]1[C@](C)(C(=O)O)CCC[C@]21C` [Wu27], for which the “compound-induced G(V) shift (mean±SEM)” value is −5.9±0.4 mV, the “ΔG(V) of representative G(V) curves (single examples)” value is recorded as −6.1 mV and the “G(V) shift” value is reported as −5.9 mV.

As for `CC(C)c1cc2c(cc1Br)[C@@]1(C)CCC[C@@](C)(C(=O)O)C1C/C2=N\O` (stereo partly drawn) [Wu28, (1R,4aS,E)-6-bromo-9-(hydroxyimino)-7-isopropyl-1,4a-dimethyl-1,2,3,4,4a,9,10,10a-octahydrophenanthrene-1-carboxylic acid], the “G(V) shift” value was −12.4 mV.

Regarding `CC(C)c1cc2c(cc1Br)C1(C)CCCC(C)(C(=O)O)C1CC2=O` (centres unmarked) [Wu30], the “G(V) shift” value was −7.0 mV.

Regarding `CC(C)c1ccc2c(c1)C(=NO)CC1C(C)(C(=O)O)CCCC21C` (centres unmarked) [Wu31], the “effect on G(V) shift / current” value is recorded as “clearly reduced the current increase” and the “G(V) shift” value is −3.0 mV.

Consider `C=CCO/N=C1\CC2[C@](C)(C(=O)O)CCC[C@]2(C)c2cc(Br)c(C(C)C)cc21` (stereo partly drawn) [Wu33, (1R,4aS,E)-6-bromo-9-((allyloxy)imino)-7-isopropyl-1,4a-dimethyl-1,2,3,4,4a,9,10,10a-octahydrophenanthrene-1-carboxylic acid], for which the “G(V) shift” value was −24.5 mV.

For `CC(C)c1cc2c(cc1Br)C1(C)CCCC(C)(C(=O)O)C1CC2=NOCc1ccccc1` (centres unmarked) [Wu34], the “G(V) shift” value is reported as −6.6 mV.

Consider `CON=C1C[C@H]2[C@](C)(C(=O)O)CCC[C@]2(C)c2ccc(C(C)C)cc21` [Wu36], for which the “increase in G(V) shift relative to DHAA (ΔVc7, ΔVhalo, ΔVtot)” value is on record as −2.7 mV; the “compound-induced G(V) shift (mean±SEM)” value is listed as −14.8 mV; the “effect on G(V) shift / current” value is “no significantly different effects compared to DHAA”; the “G(V) shift” value is recorded as −14.8 mV. The relative current amplitude was found to be 4.4 times.

In the case of `CC(C)c1c(Cl)cc2c(c1Cl)C(=O)CC1C(C)(C(=O)O)CCCC21C` (centres unmarked) [Wu37], the “G(V) shift” value is −11.1 mV.

For `COC1CC2[C@](C)(C(=O)O)CCC[C@]2(C)c2ccc(C(C)C)cc21` (some centres unmarked) [Wu39], the “effect on G(V) shift / current” value was “clearly reduced the current increase”, the “G(V) shift” value is −7.3 mV and the relative current amplitude is 2.6 times.

With `C=CCON=C1CC2C(C)(C(=O)O)CCCC2(C)c2cc(Cl)c(C(C)C)c(Cl)c21` (centres unmarked) [Wu40], the “G(V) shift” value is reported as −13.4 mV.

As for `CON=C1C[C@H]2[C@](C)(C(=O)O)CCC[C@]2(C)c2cc(Cl)c(C(C)C)c(Cl)c21` [Wu41, (1R,4aS,10aR)-6,8-dichloro-7-isopropyl-9-(methoxyimino)-1,4a-dimethyl-1,2,3,4,4a,9,10,10a-octahydrophenanthrene-1-carboxylic acid], the “G(V) shift” value is given as −22.1 mV.

With `CC(C)c1c(Cl)cc2c(c1Cl)C(=NO)CC1C(C)(C(=O)O)CCCC21C` (centres unmarked) [Wu42], the “G(V) shift” value is listed as −6.1 mV.

Consider `CC(C)c1c(Cl)cc2c(c1Cl)C(=NOCc1ccccc1)CC1C(C)(C(=O)O)CCCC21C` (centres unmarked) [Wu43], for which the “G(V) shift” value was −4.2 mV.

For `CC(C)c1c(Cl)c(Cl)c2c(c1Cl)CCC1C(C)(C(=O)O)CCCC21C` (centres unmarked) [Wu45], the “G(V) shift” value is −3.9 mV.

Take `CC(C)c1c(Cl)c(Cl)c2c(c1Cl)C(=O)CC1[C@](C)(C(=O)O)CCC[C@]21C` (some centres unmarked) [Wu46]: the “G(V) shift” value was −2.5 mV.

Turning to `CON=C1CC2C(C)(C(=O)O)CCCC2(C)c2c(Cl)c(Cl)c(C(C)C)c(Cl)c21` (centres unmarked) [Wu47], the “G(V) shift” value is listed as −13.4 mV.

As to `CC(C)c1c(Cl)c(Cl)c2c(c1Cl)C(=NO)CC1C(C)(C(=O)O)CCCC21C` (centres unmarked) [Wu48], the “G(V) shift” value is 4.7 mV.

With `C=CCON=C1CC2C(C)(C(=O)O)CCCC2(C)c2c(Cl)c(Cl)c(C(C)C)c(Cl)c21` (centres unmarked) [Wu49], the “G(V) shift” value was −7.3 mV.

Take `CC(C)c1c(Cl)c(Cl)c2c(c1Cl)C(=NOCc1ccccc1)CC1C(C)(C(=O)O)CCCC21C` (centres unmarked) [Wu51]: the “G(V) shift” value is −1.9 mV.
